Measured values from publication PMC11122421 (Marine Drugs, 2024).
“And” between values parts separate entries of the source, which are not always exact repeats. Identical values can stand only once. Where a SMILES comes first, the peptide text is derived from it. Bridges are numbered along the chain shown (N, C = ends). The star is where a group is joined. X2 = CN(C)c1ccc2c(-c3cc(C(=O)*)ccc3C(=O)[O-])c3ccc(=[N+](C)C)cc-3oc2c1; X1 = C[N+]1=C(/C=C/C=C2/N(CCCCCC(=O)*)c3ccccc3C2(C)C)C(C)(C)c2ccccc21; BODIPY(FL) = CC1=CC(C)=[N+]2C1=Cc1ccc(CCC(=O)*)n1[B-]2(F)F

Tests used:
rat α3β2 nAChR = molecular target: T1, rat α3β2 nAChR (Rattus norvegicus, UniProt P04757+P12390); assay: cell-based
T1 construct: expressed in transfected cells; host or cells: Xenopus laevis oocytes injected with cRNA; plasmids from J. Michael McIntosh (University of Utah)

rat α6/α3β4 nAChRs = molecular target: T2, rat α6/α3β4 nAChRs (Rattus norvegicus, UniProt P04757+P12392+P43143); assay type: cell-based
T2 construct: expressed in transfected cells; host or cells: Xenopus laevis oocytes injected with cRNA; plasmids from J. Michael McIntosh (University of Utah)

rat α7 nAChRs = molecular target: T3, rat α7 nAChRs (Rattus norvegicus, UniProt Q05941); assay: cell-based; assay type: cell-based
T3 construct: expressed in transfected cells; host or cells: Xenopus laevis oocytes injected with cRNA; plasmids from J. Michael McIntosh (University of Utah)

[1] = not given; remark: listed apart in the source
[2] = molecular target: T4, α7 nAChRs in rat brain slices (Rattus norvegicus, UniProt Q05941)
T4 construct: from tissue; host or cells: frozen brain slices of ten-week-old rats (hippocampus, striatum, cortex, cerebellum)
T4 sequence (Q05941 23-502): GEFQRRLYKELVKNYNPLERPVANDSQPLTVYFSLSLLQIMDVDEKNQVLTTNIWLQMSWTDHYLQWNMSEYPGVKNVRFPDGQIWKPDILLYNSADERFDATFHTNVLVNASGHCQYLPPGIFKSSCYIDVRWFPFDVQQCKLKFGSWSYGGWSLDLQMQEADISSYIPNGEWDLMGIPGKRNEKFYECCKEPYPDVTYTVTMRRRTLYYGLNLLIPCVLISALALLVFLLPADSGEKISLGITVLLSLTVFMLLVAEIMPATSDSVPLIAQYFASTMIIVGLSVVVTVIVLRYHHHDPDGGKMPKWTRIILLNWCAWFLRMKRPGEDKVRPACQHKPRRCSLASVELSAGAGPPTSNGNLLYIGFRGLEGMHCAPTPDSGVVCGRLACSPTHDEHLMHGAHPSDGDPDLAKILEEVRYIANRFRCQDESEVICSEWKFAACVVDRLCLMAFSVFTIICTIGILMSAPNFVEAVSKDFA

T3 sequence (Q05941 23-502): as above
T1 sequence (P04757 26-499 limits assumed): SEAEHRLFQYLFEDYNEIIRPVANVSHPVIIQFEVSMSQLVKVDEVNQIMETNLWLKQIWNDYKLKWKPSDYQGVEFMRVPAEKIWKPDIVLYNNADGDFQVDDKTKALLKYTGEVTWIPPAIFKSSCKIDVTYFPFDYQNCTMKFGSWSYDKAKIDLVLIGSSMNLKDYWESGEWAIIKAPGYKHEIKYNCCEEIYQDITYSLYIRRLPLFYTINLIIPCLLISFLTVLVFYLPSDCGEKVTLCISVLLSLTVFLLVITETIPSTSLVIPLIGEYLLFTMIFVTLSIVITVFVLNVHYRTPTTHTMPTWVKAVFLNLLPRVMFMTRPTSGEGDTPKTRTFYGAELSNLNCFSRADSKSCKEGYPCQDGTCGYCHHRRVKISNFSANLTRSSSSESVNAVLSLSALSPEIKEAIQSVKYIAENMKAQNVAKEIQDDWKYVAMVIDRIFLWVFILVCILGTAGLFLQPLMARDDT
T1 sequence (P12390 25-500 limits assumed): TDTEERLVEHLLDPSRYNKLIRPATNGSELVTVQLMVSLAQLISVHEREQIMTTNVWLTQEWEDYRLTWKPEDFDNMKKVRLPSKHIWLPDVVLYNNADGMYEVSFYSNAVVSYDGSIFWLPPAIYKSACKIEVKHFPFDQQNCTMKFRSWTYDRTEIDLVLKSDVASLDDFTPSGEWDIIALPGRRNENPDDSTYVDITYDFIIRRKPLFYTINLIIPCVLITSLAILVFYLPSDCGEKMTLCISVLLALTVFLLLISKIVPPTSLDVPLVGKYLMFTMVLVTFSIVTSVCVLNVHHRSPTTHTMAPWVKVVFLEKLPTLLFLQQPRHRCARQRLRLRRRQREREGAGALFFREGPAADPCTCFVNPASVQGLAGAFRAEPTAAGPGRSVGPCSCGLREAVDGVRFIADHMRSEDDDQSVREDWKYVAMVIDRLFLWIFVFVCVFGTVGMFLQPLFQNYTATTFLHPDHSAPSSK
T2 sequence (P43143+P04757 fused with the stated changes): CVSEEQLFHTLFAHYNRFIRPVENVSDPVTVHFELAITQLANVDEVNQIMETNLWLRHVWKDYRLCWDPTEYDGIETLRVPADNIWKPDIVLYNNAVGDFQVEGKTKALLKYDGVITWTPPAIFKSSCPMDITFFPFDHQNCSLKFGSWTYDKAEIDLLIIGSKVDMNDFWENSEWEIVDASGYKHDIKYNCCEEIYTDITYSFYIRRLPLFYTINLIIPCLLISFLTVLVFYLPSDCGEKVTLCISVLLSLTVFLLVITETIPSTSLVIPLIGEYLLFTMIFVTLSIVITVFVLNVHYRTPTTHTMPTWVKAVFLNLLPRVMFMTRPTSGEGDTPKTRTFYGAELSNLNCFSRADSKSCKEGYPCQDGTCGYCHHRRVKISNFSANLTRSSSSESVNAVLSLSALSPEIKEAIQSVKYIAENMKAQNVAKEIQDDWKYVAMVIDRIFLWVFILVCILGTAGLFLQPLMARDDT
T2 sequence (P12392 21-495): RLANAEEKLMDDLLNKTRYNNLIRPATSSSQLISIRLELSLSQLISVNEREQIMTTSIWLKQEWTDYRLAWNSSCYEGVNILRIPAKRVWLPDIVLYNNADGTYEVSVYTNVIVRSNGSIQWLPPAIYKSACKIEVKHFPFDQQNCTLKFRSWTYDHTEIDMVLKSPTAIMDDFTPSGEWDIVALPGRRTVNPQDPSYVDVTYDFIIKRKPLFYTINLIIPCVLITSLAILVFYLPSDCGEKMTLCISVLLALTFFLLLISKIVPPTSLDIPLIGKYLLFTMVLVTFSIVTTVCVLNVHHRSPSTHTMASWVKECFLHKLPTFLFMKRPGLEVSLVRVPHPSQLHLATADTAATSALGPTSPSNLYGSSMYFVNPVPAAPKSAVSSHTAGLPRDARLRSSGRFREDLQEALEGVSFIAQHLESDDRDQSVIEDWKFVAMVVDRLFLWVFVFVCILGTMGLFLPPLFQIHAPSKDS

| Structure (SMILES) | inhibition rate (rat α3β2 nAChR) [%] | IC50 (rat α3β2 nAChR) | emission wavelength (Em) [nm] | inhibition rate (rat α6/α3β4 nAChRs) [%] | IC50 (rat α7 nAChRs) [nM] | inhibition rate of ACh-evoked current (rat α7 nAChRs) [%] | excitation wavelength (Ex) [1] [nm] | fluorescence labelling of brain regions [2] | Hill Slope (rat α7 nAChRs) | time to ~90% current restoration after block (recovery/washout) (rat α7 nAChRs) [min] |
| --- | --- | --- | --- | --- | --- | --- | --- | --- | --- | --- |
| CC1=CC(C)=[N+]2C1=Cc1ccc(CCC(=O)NCC(=O)N[C@H]3CSSC[C@@H]4NC(=O)[C@@H]5CCCN5C(=O)[C@@H]5CCCN5C(=O)[C@H](CC(N)=O)NC(=O)[C@H](CO)NC(=O)[C@H](CSSC[C@@H](C(N)=O)NC(=O)[C@H](Cc5c[nH]cn5)NC(=O)[C@H](CCC(=O)O)NC(=O)[C@H](Cc5c[nH]cn5)NC(=O)[C@H](C)NC4=O)NC3=O)n1[B-]2(F)F [LvIB-B] ({BODIPY(FL)}-GCCSNPPCAHEHC-NH2; disulfide 2-8, 3-13) | 64 ± 4 | 2550 nM and 10900 nM | 510 | 0 ± 2 | 187 | 96 ± 0.11 | 505 |  |  |  |
| C[C@@H]1NC(=O)[C@@H]2CSSC[C@H](NC(=O)CNC(=O)CCCCCN3/C(=C/C=C/C4=[N+](C)c5ccccc5C4(C)C)C(C)(C)c4ccccc43)C(=O)N[C@@H](CSSC[C@@H](C(N)=O)NC(=O)[C@H](Cc3c[nH]cn3)NC(=O)[C@H](CCC(=O)O)NC(=O)[C@H](Cc3c[nH]cn3)NC1=O)C(=O)N[C@@H](CO)C(=O)N[C@@H](CC(N)=O)C(=O)N1CCC[C@H]1C(=O)N1CCC[C@H]1C(=O)N2 [LvIB-C] (X1-GCCSNPPCAHEHC-NH2; disulfide 2-8, 3-13) | 50 ± 2 | 10900 nM and 2550 nM | 570 | 10 ± 0.3 | 298 | 94 ± 0.20 | 550 | distinct fluorescence distribution in the hippocampus, striatum, and cortex | 1.39 (1.05–1.72) | ≤ 14 |
| C[C@@H]1NC(=O)[C@@H]2CSSC[C@H](NC(=O)CNC(=O)c3ccc(C(=O)[O-])c(-c4c5ccc(=[N+](C)C)cc-5oc5cc(N(C)C)ccc45)c3)C(=O)N[C@@H](CSSC[C@@H](C(N)=O)NC(=O)[C@H](Cc3c[nH]cn3)NC(=O)[C@H](CCC(=O)O)NC(=O)[C@H](Cc3c[nH]cn3)NC1=O)C(=O)N[C@@H](CO)C(=O)N[C@@H](CC(N)=O)C(=O)N1CCC[C@H]1C(=O)N1CCC[C@H]1C(=O)N2 [LvIB-R] (X2-GCCSNPPCAHEHC-NH2; disulfide 2-8, 3-13) |  |  | 580 |  | 643 | 87 ± 0.24 | 555 | distinct fluorescence distribution in the hippocampus, striatum, and cortex | 0.89 (0.67–1.14) | ≤ 14 |
